Data taken from patent publication US20220331309A1, “PHARMACEUTICAL COMPOSITION FOR TREATING INSOMNIA” (priority 2019, published 2022).

Key:
CYP3A = conditions: FDA guidance classification; cited from earlier work
[1] = Prediction of pharmacokinetics of 2.5 mg lemborexant in combination with agent moderately or strongly inhibiting CYP3A (Test Example 1-3, dose proportionality); format: in vivo, human; conditions: for AUC(0-inf) / Cmax: both sexes, human, plasma, oral; for AUC(0-inf): read-out: mean AUC (0-inf) achieved; for Cmax: read-out: mean Cmax achieved
Method: The results are shown in Tables 3 and 4 with the actually measured values of the single administration of 10 mg lemborexant in Sections (1-1) and (1-2) above.

[2] = Single dose administration test of lemborexant in healthy adults (Test Example 3); format: in vivo, human; conditions: for AUC(0-inf) / Cmax: human, plasma, oral
Method: In 64 cases of healthy adults under a feed-deprived condition, the pharmacokinetics of lemborexant administered with single doses of 1, 2.5, 5, 10, 25, 50, 100, and 200 mg thereof was examined by a randomized, double-blinded, placebo-controlled, multi-stage single administration test. In each group, lemborexant was administered to six cases, and the placebo was administered to two cases.
The transition of the mean lemborexant concentration in the plasma when single doses of 1, […], 10, 25, 50, 100, and 200 mg lemborexant were administered to the healthy adults is shown in FIG. 1.

[3] = Pharmacokinetics of lemborexant alone and in combination with fluconazole in healthy adults (Test Example 1-1); conditions: for Cmax (geometric mean): healthy adults
Method: A single dose of 10 mg lemborexant was administered to fourteen healthy adults (males and females, 18 to 55 years old) (single administration of lemborexant); 200 mg of fluconazole was administered one time per day (two times only on Day 11) from Day 11 to Day 26 where the single administration of the lemborexant was defined as Day 1; and a single dose of 10 mg lemborexant was administered on Day 15 (administration of lemborexant in combination with fluconazole). The concentrations of lemborexant in the plasma during the single administration of lemborexant and during the administration of lemborexant in combination with fluconazole were measured with a high performance liquid chromatograph/tandem mass spectrometry (hereinafter, referred to as “LC-MS/MS”) under the following conditions to calculate the geometric means of the Cmax and the AUC (0-inf).
(§1) HPLC (pump: LC-10ADvp or LC 20AD, Autosampler SLL 20ACHT, SHIMADZU Corporation) mass spectrometer (API5000 or API5500, AB Sciex)
(§2) A 10 μL solution of an internal standard substance (lemborexant labeled with deuterium) was added to 100 μL of a human plasma, and the resulting mixture was convened into a basic condition with 10 μL of aqueous ammonia and was subjected to liquid-liquid extraction with methyl tert-butyl ether (MTBE). After stirring (for about 10 minutes) and centrifugation (about 14000 rpm, for about 10 minutes) were performed, the upper layer was evaporated into dryness at 30° C. under a nitrogen stream, and was redissolved with 200 μL of a mixed solution (50/50, v/v) of 0.1% formic acid-containing acetonitrile/water to prepare a sample for LC-MS/MS.
(§3) The measurement was performed in an MRM mode by positive detection of an electrospray ionization (ESI) method. […] A variety of parameters for AP15500/5500 Qtrap used are shown below. Ion spray Voltage: 5500 v, Curtain Gas 40, CAD 8, Gas1 70, Gas2 70, DP100, Dwell time 250 (parameters are not limited to these)
(§4) The lemborexant concentration in the plasma was calculated using an internal standard calibration curve created through inverse regression according to the method of least squares generated from the ratio of the peak area of lemborexant to that of the internal standard substance.

[4] = Pharmacokinetics of lemborexant alone and in combination with itraconazole in healthy adults (Test Example 1-2); conditions: for Cmax (geometric mean): healthy adults
Method: as §1, §2, §3, §4
A single dose of 10 mg lemborexant was administered to fifteen healthy adults (males and females, 21 to 55 years old) (single administration of lemborexant); 200 mg of itraconazole was administered one time per day from Day 15 to Day 34 where the single administration of lemborexant was defined as Day 1; and a single dose of 10 mg lemborexant was administered on Day 22 (administration of lemborexant in combination with itraconazole).

[5] = 2.5 mg lemborexant in combination with fluconazole
[6] = 2.5 mg lemborexant in combination with itraconazole
[7] = 2.5 mg lemborexant, lower to upper limit of 95% CI in combination with fluconazole
[8] = 2.5 mg lemborexant, lower to upper limit of 95% CI in combination with itraconazole
[9] = all administration groups, in average
[10] = 10 mg lemborexant in combination with fluconazole
[11] = both, human, plasma, oral, 10 mg
[12] = combination with fluconazole vs single administration, 10 mg lemborexant
[13] = single administration of 10 mg lemborexant, plasma
[14] = 10 mg lemborexant in combination with itraconazole
[15] = combination with itraconazole vs single administration, 10 mg lemborexant

In the case of `CCC(C)n1ncn(-c2ccc(N3CCN(c4ccc(OCC5COC(Cn6cncn6)(c6ccc(Cl)cc6Cl)O5)cc4)CC3)cc2)c1=O` (stereo not shown) [Itraconazole, itraconazole], the “Classification of CYP3A inhibiting action of drug used in combination” value (CYP3A) is listed as “Strongly”.

In the case of `OC(Cn1cncn1)(Cn1cncn1)c1ccc(F)cc1F` [fluconazole], the “Classification of CYP3A inhibiting action of drug used in combination” value (CYP3A) is listed as “moderately”.

For `Cc1ncc(OC[C@@]2(c3cccc(F)c3)C[C@H]2C(=O)Nc2ccc(F)cn2)c(C)n1` [lemborexant, (1R,2S)-2-(((2,4-dimethylpyrimidin-5-yl)oxy)methyl)-2-(3-fluorophenyl)-N-(5-fluoropyridin-2-yl)cyclopropanecarboxamide], the “AUC(0-inf), predicted value (geometric mean)” value [1, 5] was 370 ng·h/mL, the “Cmax, predicted value (geometric mean)” value [1, 5] was 22.1 ng/mL and the “predicted mean AUC (0-inf) lower than mean AUC (0-inf) of single 10 mg dose” value [1, 5] was 1.1%. The “predicted mean Cmax lower than mean Cmax of single 10 mg dose” value [1, 5] was 59.4%, the “AUC(0-inf), predicted value (geometric mean)” value [1, 6] was 447 ng·h/mL and the “Cmax, predicted value (geometric mean)” value [1, 6] was 18.9 ng/mL. For the same molecule, the “predicted mean AUC (0-inf) higher than mean AUC (0-inf) of single 10 mg dose” value [1, 6] was 32%, the AUC(0-inf) [1, 7] was 308 to 445 ng·h/mL and the Cmax [1, 7] was 18.1 to 26.9 ng/mL. The AUC(0-inf) [1, 8] was 374 to 533 ng·h/mL, the Cmax [1, 8] was 17 to 21.1 ng/mL and the Cmax ([1]; 2.5 mg, 2.5 mg lemborexant with moderate or strong CYP3A inhibitor, lower 95% CI limit with itraconazole to upper 95% CI limit with fluconazole) was 17 to 26.9 ng/mL. For the same molecule, the AUC(0-inf) ([1]; 2.5 mg lemborexant with moderate or strong CYP3A inhibitor, lower 95% CI limit with fluconazole to upper 95% CI limit with itraconazole) was 308 to 533 ng·h/mL, the “exposure until 9 hours after administration as proportion of the AUC (0-inf)” value [2, 9] was “about 45%” and the “exposure until 9 hours after administration as proportion of the exposure until 24 hours” value [2, 9] was “about 75%”. The “increase of geometric mean Cmax relative to dose” value ([2]; dose of 10 mg or more) was “slightly lower than the dose ratio”, the “dose dependence of the mean AUC (0-24 h)” value ([2]; examined dose range 1 to 200 mg) was “approximately dose proportionality” and the AUC(0-inf) ([2]; 5 mg, single administration of 5 mg lemborexant, healthy adults, read-out: AUC(0-inf), Geometric mean) was 146 ng·h/mL. It also gave an AUC(0-inf) ([2]; 5 mg, single administration of 5 mg lemborexant, healthy adults, read-out: AUC(0-inf), Mean) of 149 ng·h/mL, an AUC(0-inf) ([2]; 5 mg, single administration of 5 mg lemborexant, healthy adults, read-out: AUC(0-inf), Median) of 139 ng·h/mL and an AUC(0-inf) ([2]; 5 mg, single administration of 5 mg lemborexant, healthy adults, read-out: AUC(0-inf), Minimum value) of 123 ng·h/mL. It also gave an AUC(0-inf) ([2]; 5 mg, single administration of 5 mg lemborexant, healthy adults, read-out: AUC(0-inf), maximum value) of 209 ng·h/mL, a Cmax ([2]; 5 mg, single administration of 5 mg lemborexant, healthy adults, read-out: Cmax, Geometric mean) of 22.3 ng/mL and a Cmax ([2]; 5 mg, single administration of 5 mg lemborexant, healthy adults, read-out: Cmax, Mean) of 22.7 ng/mL. The Cmax ([2]; 5 mg, single administration of 5 mg lemborexant, healthy adults, read-out: Cmax, Median) was 21.9 ng/mL, the Cmax ([2]; 5 mg, single administration of 5 mg lemborexant, healthy adults, read-out: Cmax, Minimum value) was 17.2 ng/mL and the Cmax ([2]; 5 mg, single administration of 5 mg lemborexant, healthy adults, read-out: Cmax, maximum value) was 30 ng/mL. For the same molecule, the AUC(0-inf) ([2]; 5 mg, single dose of 5 mg lemborexant, read-out: AUC (0-inf), lower limit value of the 95% confidence interval) was 113 ng·h/mL, the AUC(0-inf) ([2]; 5 mg, single dose of 5 mg lemborexant, read-out: AUC (0-inf), upper limit value of the 95% confidence interval) was 189 ng·h/mL and the Cmax ([2]; 5 mg, single dose of 5 mg lemborexant, read-out: Cmax, lower limit value of the 95% confidence interval) was 18.3 ng/mL. It also gave a Cmax ([2]; 5 mg, single dose of 5 mg lemborexant, read-out: Cmax, upper limit value of the 95% confidence interval) of 27.3 ng/mL, an AUC(0-inf) ([2]; 10 mg, single administration of 10 mg lemborexant, healthy adults, read-out: AUC(0-inf), Geometric mean) of 299 ng·h/mL and an AUC(0-inf) ([2]; 10 mg, single administration of 10 mg lemborexant, healthy adults, read-out: AUC(0-inf), Mean) of 311 ng·h/mL. The AUC(0-inf) ([2]; 10 mg, single administration of 10 mg lemborexant, healthy adults, read-out: AUC(0-inf), Median) was 314 ng·h/mL, the AUC(0-inf) ([2]; 10 mg, single administration of 10 mg lemborexant, healthy adults, read-out: AUC(0-inf), Minimum value) was 188 ng·h/mL and the AUC(0-inf) ([2]; 10 mg, single administration of 10 mg lemborexant, healthy adults, read-out: AUC(0-inf), maximum value) was 409 ng·h/mL. The Cmax ([2]; 10 mg, single administration of 10 mg lemborexant, healthy adults, read-out: Cmax, Geometric mean) was 32 ng/mL, the Cmax ([2]; 10 mg, single administration of 10 mg lemborexant, healthy adults, read-out: Cmax, Mean) was 36 ng/mL and the Cmax ([2]; 10 mg, single administration of 10 mg lemborexant, healthy adults, read-out: Cmax, Median) was 31.4 ng/mL. For the same molecule, the Cmax ([2]; 10 mg, single administration of 10 mg lemborexant, healthy adults, read-out: Cmax, Minimum value) was 16.9 ng/mL, the Cmax ([2]; 10 mg, single administration of 10 mg lemborexant, healthy adults, read-out: Cmax, maximum value) was 62.1 ng/mL and the AUC(0-inf) ([2]; 10 mg, single dose of 10 mg lemborexant, read-out: AUC (0-inf), lower limit value of the 95% confidence interval) was 216 ng·h/mL. The AUC(0-inf) ([2]; 10 mg, single dose of 10 mg lemborexant, read-out: AUC (0-inf), upper limit value of the 95% confidence interval) was 414 ng·h/mL, the Cmax ([2]; 10 mg, single dose of 10 mg lemborexant, read-out: Cmax, lower limit value of the 95% confidence interval) was 18.3 ng/mL and the AUC(0-inf) ([2]; dose 5 to 10 mg, lower 95% CI limit Table 9 (5 mg) to upper 95% CI limit Table 4 (10 mg), read-out: mean AUC (0-inf) achieved) was 113 to 537 ng·h/mL. For the same molecule, the Cmax ([2]; dose 5 to 10 mg, lower limit for 5 mg with weak CYP3A inhibitor to upper 95% CI limit Table 8 (10 mg), read-out: mean Cmax achieved) was 16.5 to 56 ng/mL, the “Cmax, upper limit value of the 95% confidence interval” value ([2]; single dose of 10 mg lemborexant) was 56.0 ng/mL and the “elimination profile of plasma concentration after administration” value ([2]; single doses 1 to 200 mg, healthy adults) was “biphasic elimination”. For the same molecule, the “increase of mean AUC (0-inf) compared to single administration” value [3, 10] was 317%, the “increase of mean Cmax compared to single administration” value [3, 10] was 62% and the “Cmax (geometric mean)” value ([3]; 10 mg lemborexant in combination with fluconazole 200 mg once per day, plasma) was 88.3 ng/mL. The AUC(0-inf) [3, 11] was 374 ng·h/mL, the “AUC(0-inf) ratio of (b) to (a)” value [3, 12] was 4.17 and the “Cmax ratio of (b) to (a)” value [3, 12] was 1.62. The “Cmax (geometric mean)” value [3, 13] was 54.4 ng/mL, the “increase of mean AUC (0-inf) compared to single administration” value [4, 14] was 270% and the “increase of mean Cmax compared to single administration” value [4, 14] was 36%. For the same molecule, the “Cmax (geometric mean)” value ([4]; 10 mg lemborexant in combination with itraconazole 200 mg once per day, plasma) was 73.9 ng/mL, the AUC(0-inf) [4, 11] was 433 ng·h/mL and the “AUC(0-inf) ratio of (d) to (c)” value [4, 15] was 3.70. For the same molecule, the “Cmax ratio of (d) to (c)” value [4, 15] was 1.36 and the “Cmax (geometric mean)” value [4, 13] was 54.3 ng/mL.
